Test results reported in US20220226265A1, “METHODS OF CONTROLLING MYOCARDIAL BLOOD FLOW” (UNIVERSITY OF LOUISVILLE RESEARCH FOUNDATION, INC., priority 2021, published 2022).

Legend:
[1] = system: coronary arterial myocytes; experiment: Perforated whole cell patch clamp of outward K+ current; assay type: cell-based, mouse
Protocol: In situ proximity ligation: Arterial myocytes were isolated from coronary and mesenteric arteries using enzymatic digestion procedures, similar to those described previously. Briefly, arteries were incubated in digestion buffer containing (in mM): 140 NaCl, 5 KCl, 2 MgCl2, 10 HEPES, 10 glucose, pH 7.4 at 37° C. for 1 min. […]
Patch clamp electrophysiology: Arterial myocytes were isolated from coronary arteries as described above. […] Total outward K^+ currents (IK) were recorded from coronary arterial myocytes using the perforated whole cell configuration of the patch clamp technique in voltage clamp mode using an Axopatch 200B patch clamp amplifier (Axon Instruments). […] K^+ currents were recorded from each cell in the absence and presence of L-lactate (10 mM) in bath solution with and without psora-4 (500 nM). […] Patch clamp data were analyzed suing Clampfit 9 software (Axon Instruments). IK is expressed as peak currents reached during the period of depolarization normalized by cell capacitance and expressed as pA/pF.

[2] = system: isolated coronary arteries; experiment: L-lactate-induced vasodilation of preconstricted isolated coronary arteries; design: species or system mouse
Protocol: Arterial diameter measurements: Primary and secondary branches of the left anterior descending coronary arteries and third and fourth order branches of mesenteric arteries and were dissected and kept in ice-cold isolation buffer consisting of (in mM): 134 NaCl, 6 KCl, 1 MgCl2, 2 CaCl2, 10 HEPES, 7 D-glucose, pH 7.4. Isolated arteries were used for arterial diameter measurements within 8 h after dissection. Isolated arteries were cleaned of connective tissue and cannulated on glass micropipettes mounted in a linear alignment single vessel myograph chamber (Living Systems Instrumentation, St. Albans, Vt., USA). For some experiments, the vascular endothelium was functionally ablated by passage of air through the lumen (˜30 s) during the cannulation procedure. After cannulation, the chamber was placed on an inverted microscope and arteries were equilibrated at 37° C. and intravascular pressure of 20 mmHg, maintained with a pressure servo control unit (Living Systems Instrumentation, St. Albans, Vt., USA) under continuous perfusion (3-5 ml·min^−1) of physiological saline solution (PSS) consisting of (in mM): 119 NaCl, 4.7 KCl, 1.2 KH2PO4, 1.2 MgCl2, 7 D-glucose, 24 NaHCO3, 2 CaCl2, maintained at pH 7.35-7.45 via aeration with gas mixture containing 5% CO2 and 20% O2 (balanced with N2). Following an equilibration period (45-60 min), lumenal diameter was continuously monitored and recorded with a charge coupled device (CCD) camera and edge detection software (IonOptix, Milton, Mass., USA). […] Bath O2 levels were measured using a dissolved oxygen meter (World Precision Instruments, Sarasota, Fla., USA). At the end of each experiment, the maximum passive diameter was measured in the presence of Ca^2+-free PSS containing the L-type Ca^2+ channel inhibitor nifedipine (1 μM) and adenylyl cyclase activator forskolin (0.5 μM), as described previously. Vasoconstriction is expressed as a decrease in arterial diameter relative to the maximum passive diameter at a given intravascular pressure. […]

[3] = system: isolated mesenteric arteries; experiment: Vasodilation of preconstricted isolated mesenteric arteries; design: species or system mouse
Protocol: Arterial diameter measurements: Primary and secondary branches of the left anterior descending coronary arteries and third and fourth order branches of mesenteric arteries and were dissected and kept in ice-cold isolation buffer consisting of (in mM): 134 NaCl, 6 KCl, 1 MgCl2, 2 CaCl2, 10 HEPES, 7 D-glucose, pH 7.4. Isolated arteries were used for arterial diameter measurements within 8 h after dissection. Isolated arteries were cleaned of connective tissue and cannulated on glass micropipettes mounted in a linear alignment single vessel myograph chamber (Living Systems Instrumentation, St. Albans, Vt., USA). For some experiments, the vascular endothelium was functionally ablated by passage of air through the lumen (˜30 s) during the cannulation procedure. After cannulation, the chamber was placed on an inverted microscope and arteries were equilibrated at 37° C. and intravascular pressure of 20 mmHg, maintained with a pressure servo control unit (Living Systems Instrumentation, St. Albans, Vt., USA) under continuous perfusion (3-5 ml·min^−1) of physiological saline solution (PSS) consisting of (in mM): 119 NaCl, 4.7 KCl, 1.2 KH2PO4, 1.2 MgCl2, 7 D-glucose, 24 NaHCO3, 2 CaCl2, maintained at pH 7.35-7.45 via aeration with gas mixture containing 5% CO2 and 20% O2 (balanced with N2). Following an equilibration period (45-60 min), lumenal diameter was continuously monitored and recorded with a charge coupled device (CCD) camera and edge detection software (IonOptix, Milton, Mass., USA). Experiments were performed to examine effects of step-wise increases in intravascular pressure (20-100 mmHg), elevated [K^+]o (via isosmotic replacement of KCl for NaCl), the synthetic thromboxane A2 analogue U46619 (Tocris Bioscience, Minneapolis, Minn., USA), adenosine (Sigma Aldrich, St. Louis, Mo., USA), or L-lactate (Sigma Aldrich, St. Louis, Mo., USA). For some experiments, hypoxic bath conditions were generated by perfusion of 1 mM Na2S2O4-containing PSS aerated with 5% CO2 (balance N2; 0% O2). Bath O2 levels were measured using a dissolved oxygen meter (World Precision Instruments, Sarasota, Fla., USA). At the end of each experiment, the maximum passive diameter was measured in the presence of Ca^2+-free PSS containing the L-type Ca^2+ channel inhibitor nifedipine (1 μM) and adenylyl cyclase activator forskolin (0.5 μM), as described previously. Vasoconstriction is expressed as a decrease in arterial diameter relative to the maximum passive diameter at a given intravascular pressure. Changes in diameter (e.g., vasodilation) are normalized to differences from baseline and maximum passive diameters for each experiment.

[4] = system: isolated coronary arteries; experiment: Hypoxia-induced vasodilation of isolated pressurized coronary arteries; design: species or system mouse; settings: psora-4 500 nM; WT coronary arteries, 60 mmHg, pre-constricted with 100 nM U46619
Protocol: Arterial diameter measurements: Primary and secondary branches of the left anterior descending coronary arteries and third and fourth order branches of mesenteric arteries and were dissected and kept in ice-cold isolation buffer consisting of (in mM): 134 NaCl, 6 KCl, 1 MgCl2, 2 CaCl2, 10 HEPES, 7 D-glucose, pH 7.4. Isolated arteries were used for arterial diameter measurements within 8 h after dissection. Isolated arteries were cleaned of connective tissue and cannulated on glass micropipettes mounted in a linear alignment single vessel myograph chamber (Living Systems Instrumentation, St. Albans, Vt., USA). […] Following an equilibration period (45-60 min), lumenal diameter was continuously monitored and recorded with a charge coupled device (CCD) camera and edge detection software (IonOptix, Milton, Mass., USA). […] Bath O2 levels were measured using a dissolved oxygen meter (World Precision Instruments, Sarasota, Fla., USA). At the end of each experiment, the maximum passive diameter was measured in the presence of Ca^2+-free PSS containing the L-type Ca^2+ channel inhibitor nifedipine (1 μM) and adenylyl cyclase activator forskolin (0.5 μM), as described previously. Vasoconstriction is expressed as a decrease in arterial diameter relative to the maximum passive diameter at a given intravascular pressure. […]

**Q.** For `C[C@H](O)C(=O)O` [L-lactate], which “outward K+ current density” value ([1]; 10 mM L-lactate in the bath, 1-3 min) is on record?
**A.** The value was “significant increase”.

**Q.** What about the “vasodilation in response to external L-lactate” value ([2]; L-lactate 5-20 mM, WT coronary arteries pre-constricted with 100 nM U46619) of the same compound?
**A.** The value was “step-wise vasodilation”.

**Q.** And the L-lactate-induced vasodilation ([2]; coronary arteries isolated from Kvβ2−/− mice)?
**A.** Its L-lactate-induced vasodilation is “abolished”.

**Q.** What about the “dilation on application of L-lactate” value ([3]; L-lactate 5-20 mM, WT mesenteric arteries preconstricted with 100 nM U46619) of the same compound?
**A.** The value was “robust and reversible dilation”.

**Q.** And the L-lactate-mediated vasodilation ([3]; endothelium-denuded mesenteric arteries, 10 mM L-lactate)?
**A.** The L-lactate-mediated vasodilation was “insensitive to endothelial denudation”.

**Q.** And the L-lactate-mediated vasodilation ([3]; mesenteric arteries constricted with elevated external K+ (60 mM) rather than U46619)?
**A.** Its L-lactate-mediated vasodilation is “abolished”.

**Q.** What about the “dilatory response to L-lactate” value ([3]; mesenteric arteries from Kvβ1.1−/− mice vs corresponding WT) of the same compound?
**A.** The value was “not significantly different”.

**Q.** And the “vasodilation in response to extracellular L-lactate” value ([3]; mesenteric arteries from SM22α-rtTA:TRE-Kvβ1 vs single transgenic control mice)?
**A.** The value was “significantly blunted vasodilation”.

**Q.** And the “vasodilation in response to L-lactate” value ([3]; mesenteric arteries with loss of Kvβ2)?
**A.** The value was “eliminated”.

**Q.** `Nc1ncnc2c1ncn2[C@@H]1O[C@H](CO)[C@@H](O)[C@H]1O` [adenosine] was tested. Which “vasodilation induced by adenosine” value ([3]; adenosine 1-100 μM, Kvβ1.1−/− or Kvβ2−/− arteries vs corresponding WT) did it give?
**A.** Its value is “not significantly different”.

**Q.** For `O=c1ccc2c(OCCCCc3ccccc3)c3ccoc3cc2o1` [psora-4], which “attenuation of hypoxia-induced vasodilation” value [4] is on record?
**A.** Its value is about 58%.

**Q.** What about the “effect on L-lactate-induced increase in outward K+ current density” value ([1]; psora-4 500 nM, 10 mM L-lactate) of the same compound?
**A.** Its value is “abolished”.

**Q.** And the “effect on L-lactate-induced vasodilation” value ([2]; psora-4 500 nM, L-lactate 5-20 mM, WT coronary arteries)?
**A.** Its value is “abolished”.

**Q.** And the “effect on vasodilation in response to L-lactate” value ([3]; psora-4 500 nM, WT mesenteric arteries)?
**A.** Its value is “eliminated”.
